Test in all cases: Kinase panel
Assay type in all cases: biochemical

For assay [1], the target named is T1, TAO2(h) (Homo sapiens, UniProt Q9UL54).
T1 construct: purchased Millipore KinaseProfiler
T1 sequence (Q9UL54 1-1235): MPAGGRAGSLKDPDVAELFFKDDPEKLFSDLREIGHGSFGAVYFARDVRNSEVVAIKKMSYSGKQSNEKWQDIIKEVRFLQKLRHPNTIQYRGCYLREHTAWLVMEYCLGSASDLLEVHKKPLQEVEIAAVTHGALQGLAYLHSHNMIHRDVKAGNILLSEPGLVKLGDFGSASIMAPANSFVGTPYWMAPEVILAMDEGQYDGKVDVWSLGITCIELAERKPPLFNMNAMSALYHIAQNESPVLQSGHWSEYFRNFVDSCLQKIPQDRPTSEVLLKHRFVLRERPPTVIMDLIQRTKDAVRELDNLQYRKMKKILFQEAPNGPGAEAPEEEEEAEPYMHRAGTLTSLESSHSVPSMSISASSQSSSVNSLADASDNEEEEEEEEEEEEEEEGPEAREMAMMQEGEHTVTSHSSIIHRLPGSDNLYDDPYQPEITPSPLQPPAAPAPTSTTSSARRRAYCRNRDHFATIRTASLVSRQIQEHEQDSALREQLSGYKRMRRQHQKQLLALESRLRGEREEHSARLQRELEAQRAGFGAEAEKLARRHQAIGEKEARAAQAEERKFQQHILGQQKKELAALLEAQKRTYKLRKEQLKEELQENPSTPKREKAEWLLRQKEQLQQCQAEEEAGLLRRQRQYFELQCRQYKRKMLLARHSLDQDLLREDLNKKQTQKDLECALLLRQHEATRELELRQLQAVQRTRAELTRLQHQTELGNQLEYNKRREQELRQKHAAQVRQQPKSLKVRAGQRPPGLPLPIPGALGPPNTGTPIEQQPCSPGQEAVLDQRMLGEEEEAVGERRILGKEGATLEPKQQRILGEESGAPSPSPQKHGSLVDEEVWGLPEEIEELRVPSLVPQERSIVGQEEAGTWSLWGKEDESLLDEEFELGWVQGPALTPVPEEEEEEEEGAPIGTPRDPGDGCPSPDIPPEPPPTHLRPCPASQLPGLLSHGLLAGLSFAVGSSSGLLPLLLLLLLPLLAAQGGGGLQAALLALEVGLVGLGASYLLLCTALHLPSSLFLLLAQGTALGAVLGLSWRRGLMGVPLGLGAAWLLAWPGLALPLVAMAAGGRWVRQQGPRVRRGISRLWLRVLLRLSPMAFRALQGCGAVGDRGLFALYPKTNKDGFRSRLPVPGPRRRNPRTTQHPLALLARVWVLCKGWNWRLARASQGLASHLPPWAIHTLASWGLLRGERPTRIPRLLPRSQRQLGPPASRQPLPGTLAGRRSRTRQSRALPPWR

Assay [2] addresses T2, Rse(h) (Homo sapiens, UniProt Q06418).
T2 construct: purchased Millipore KinaseProfiler
T2 sequence (Q06418 41-890): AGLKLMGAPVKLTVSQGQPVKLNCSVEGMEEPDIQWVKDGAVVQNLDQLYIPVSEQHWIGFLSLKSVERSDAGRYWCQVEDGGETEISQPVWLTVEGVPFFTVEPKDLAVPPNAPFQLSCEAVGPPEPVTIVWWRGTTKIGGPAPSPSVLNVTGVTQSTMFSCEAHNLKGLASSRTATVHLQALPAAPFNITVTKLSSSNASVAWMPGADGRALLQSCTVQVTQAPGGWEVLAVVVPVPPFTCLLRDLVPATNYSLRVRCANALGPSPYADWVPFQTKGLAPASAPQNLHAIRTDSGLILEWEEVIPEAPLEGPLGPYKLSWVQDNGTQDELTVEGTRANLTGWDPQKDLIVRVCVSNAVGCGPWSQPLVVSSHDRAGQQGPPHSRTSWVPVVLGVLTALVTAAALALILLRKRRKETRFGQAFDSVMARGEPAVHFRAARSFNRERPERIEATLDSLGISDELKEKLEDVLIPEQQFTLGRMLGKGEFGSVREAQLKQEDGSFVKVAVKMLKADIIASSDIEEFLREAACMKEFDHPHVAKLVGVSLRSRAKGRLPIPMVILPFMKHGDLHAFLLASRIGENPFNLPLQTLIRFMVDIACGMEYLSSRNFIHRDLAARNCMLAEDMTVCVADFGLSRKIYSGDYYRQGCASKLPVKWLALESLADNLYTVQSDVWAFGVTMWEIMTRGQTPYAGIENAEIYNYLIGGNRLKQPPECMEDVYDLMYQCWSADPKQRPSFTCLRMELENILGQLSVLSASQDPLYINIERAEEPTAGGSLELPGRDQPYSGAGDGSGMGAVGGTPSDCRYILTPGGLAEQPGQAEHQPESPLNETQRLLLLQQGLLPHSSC

Assay [3] addresses T3, Fgr(h) (Homo sapiens, UniProt P09769).
T3 construct: purchased Millipore KinaseProfiler

Assay [4] has as its target T4, CK1γ3(h) (Homo sapiens, UniProt Q9Y6M4).
T4 construct: purchased Millipore KinaseProfiler

Assay [5] addresses T5, Abl (Q252H) (h) (Homo sapiens, UniProt P00519, Q252H).
T5 construct: purchased Millipore KinaseProfiler

Assay [6] addresses T6, Ros(h) (Homo sapiens, UniProt P08922).
T6 construct: purchased Millipore KinaseProfiler

One may read the inhibition as the change of the read-out against control, counted positive when it falls.

SMILES strings stand for the structures. Read-outs that look alike come from different tables or passages of the source.

T3 sequence (P09769 whole entry): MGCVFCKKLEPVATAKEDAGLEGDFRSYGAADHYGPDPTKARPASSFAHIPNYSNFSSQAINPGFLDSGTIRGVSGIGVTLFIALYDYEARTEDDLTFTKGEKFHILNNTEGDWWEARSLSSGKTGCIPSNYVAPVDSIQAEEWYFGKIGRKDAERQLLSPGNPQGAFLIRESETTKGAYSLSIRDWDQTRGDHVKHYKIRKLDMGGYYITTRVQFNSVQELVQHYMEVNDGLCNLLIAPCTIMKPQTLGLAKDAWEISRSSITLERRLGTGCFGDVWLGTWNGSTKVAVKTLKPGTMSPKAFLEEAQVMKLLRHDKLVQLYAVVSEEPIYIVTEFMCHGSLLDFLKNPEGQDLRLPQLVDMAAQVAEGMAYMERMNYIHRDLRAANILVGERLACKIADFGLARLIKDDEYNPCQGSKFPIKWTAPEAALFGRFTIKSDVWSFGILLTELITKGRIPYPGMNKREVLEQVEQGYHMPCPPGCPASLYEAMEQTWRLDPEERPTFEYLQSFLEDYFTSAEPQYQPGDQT
T6 sequence (P08922 28-2347): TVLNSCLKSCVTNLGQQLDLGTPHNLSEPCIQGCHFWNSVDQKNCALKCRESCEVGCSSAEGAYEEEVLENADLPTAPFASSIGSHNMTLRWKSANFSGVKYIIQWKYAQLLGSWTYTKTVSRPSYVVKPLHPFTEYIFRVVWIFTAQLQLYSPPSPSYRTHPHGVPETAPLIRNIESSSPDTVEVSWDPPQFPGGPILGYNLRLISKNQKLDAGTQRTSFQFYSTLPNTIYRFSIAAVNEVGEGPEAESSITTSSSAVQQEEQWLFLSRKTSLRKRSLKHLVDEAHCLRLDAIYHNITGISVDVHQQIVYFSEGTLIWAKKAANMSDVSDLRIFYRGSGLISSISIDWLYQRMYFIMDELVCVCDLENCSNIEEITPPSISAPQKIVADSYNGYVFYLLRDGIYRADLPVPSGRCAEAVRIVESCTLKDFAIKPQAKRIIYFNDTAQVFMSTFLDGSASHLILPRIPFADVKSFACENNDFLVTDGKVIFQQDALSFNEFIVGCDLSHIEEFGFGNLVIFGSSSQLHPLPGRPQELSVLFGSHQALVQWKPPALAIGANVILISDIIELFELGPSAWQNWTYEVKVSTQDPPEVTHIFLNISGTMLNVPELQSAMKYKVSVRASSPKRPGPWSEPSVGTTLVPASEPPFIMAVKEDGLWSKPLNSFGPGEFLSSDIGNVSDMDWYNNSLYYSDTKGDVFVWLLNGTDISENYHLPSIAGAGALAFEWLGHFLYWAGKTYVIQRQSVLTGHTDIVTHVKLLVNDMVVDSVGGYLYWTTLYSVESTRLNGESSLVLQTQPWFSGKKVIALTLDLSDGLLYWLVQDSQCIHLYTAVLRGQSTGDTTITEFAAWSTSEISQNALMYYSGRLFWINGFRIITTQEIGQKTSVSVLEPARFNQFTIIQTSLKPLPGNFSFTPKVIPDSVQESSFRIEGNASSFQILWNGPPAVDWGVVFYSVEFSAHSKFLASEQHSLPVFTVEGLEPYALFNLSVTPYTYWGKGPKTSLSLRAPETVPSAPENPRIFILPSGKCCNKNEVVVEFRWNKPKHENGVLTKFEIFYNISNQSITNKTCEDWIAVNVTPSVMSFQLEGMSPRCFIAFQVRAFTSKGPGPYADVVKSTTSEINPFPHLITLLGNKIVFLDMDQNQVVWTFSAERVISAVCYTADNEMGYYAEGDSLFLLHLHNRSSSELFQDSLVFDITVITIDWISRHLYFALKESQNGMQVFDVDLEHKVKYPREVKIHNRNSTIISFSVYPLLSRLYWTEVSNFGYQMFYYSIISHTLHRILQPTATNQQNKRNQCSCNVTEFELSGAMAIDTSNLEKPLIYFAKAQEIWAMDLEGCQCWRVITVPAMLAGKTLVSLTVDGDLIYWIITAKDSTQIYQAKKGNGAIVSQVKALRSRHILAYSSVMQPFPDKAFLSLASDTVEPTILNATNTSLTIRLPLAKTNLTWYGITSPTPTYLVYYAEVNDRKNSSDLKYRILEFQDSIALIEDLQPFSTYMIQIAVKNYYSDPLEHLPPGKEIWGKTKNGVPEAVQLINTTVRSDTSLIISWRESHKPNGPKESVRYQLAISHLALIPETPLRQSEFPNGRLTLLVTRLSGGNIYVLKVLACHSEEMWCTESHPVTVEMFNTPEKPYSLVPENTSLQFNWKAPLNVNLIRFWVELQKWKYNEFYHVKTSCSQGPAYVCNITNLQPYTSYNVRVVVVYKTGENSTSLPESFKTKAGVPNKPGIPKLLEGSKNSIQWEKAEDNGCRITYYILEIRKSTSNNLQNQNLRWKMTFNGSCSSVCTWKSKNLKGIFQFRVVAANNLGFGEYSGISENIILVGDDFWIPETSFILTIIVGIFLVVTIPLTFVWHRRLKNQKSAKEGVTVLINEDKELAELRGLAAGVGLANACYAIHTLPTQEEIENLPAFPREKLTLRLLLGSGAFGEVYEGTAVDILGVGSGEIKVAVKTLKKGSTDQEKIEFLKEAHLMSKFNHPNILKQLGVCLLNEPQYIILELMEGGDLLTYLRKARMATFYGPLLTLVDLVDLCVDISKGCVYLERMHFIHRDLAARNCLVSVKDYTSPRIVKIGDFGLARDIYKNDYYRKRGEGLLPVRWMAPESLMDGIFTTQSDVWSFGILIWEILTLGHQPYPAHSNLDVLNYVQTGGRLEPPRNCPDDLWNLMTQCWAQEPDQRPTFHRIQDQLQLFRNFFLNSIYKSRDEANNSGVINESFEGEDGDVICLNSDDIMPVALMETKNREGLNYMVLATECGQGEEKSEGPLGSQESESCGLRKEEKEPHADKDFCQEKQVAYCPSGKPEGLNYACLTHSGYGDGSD
T4 sequence (Q9Y6M4 whole entry): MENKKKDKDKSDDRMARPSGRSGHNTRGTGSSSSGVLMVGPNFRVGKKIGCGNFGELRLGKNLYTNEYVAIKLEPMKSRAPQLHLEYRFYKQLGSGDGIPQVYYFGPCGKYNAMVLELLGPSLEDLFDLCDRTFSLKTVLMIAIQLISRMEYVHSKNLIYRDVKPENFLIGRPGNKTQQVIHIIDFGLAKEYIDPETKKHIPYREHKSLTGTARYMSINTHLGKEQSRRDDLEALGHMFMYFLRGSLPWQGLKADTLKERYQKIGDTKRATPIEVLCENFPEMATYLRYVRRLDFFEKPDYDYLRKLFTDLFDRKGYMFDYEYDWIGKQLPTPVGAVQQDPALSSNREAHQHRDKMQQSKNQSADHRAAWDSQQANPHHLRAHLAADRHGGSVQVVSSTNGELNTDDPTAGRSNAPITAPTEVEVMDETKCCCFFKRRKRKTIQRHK

On to `Cn1ncc(Cl)c1-c1cc(C(=O)N[C@H](CN)Cc2ccc(F)c(F)c2)oc1Cl` [GSK2141795], for which the inhibition at 0.5 µM in assay [1] (0.5 µM, read-out: % Inhibition) was -5%; in assay [2] (0.5 µM, read-out: % Inhibition), 2%; in assay [3] (0.5 µM, read-out: % Inhibition) it was 2%; in assay [4] (0.5 µM, read-out: % Inhibition) it was -14%; in assay [5] (0.5 µM, read-out: % Inhibition), -1%; in assay [6] (0.5 µM, read-out: % Inhibition), 0%. For the same compound, the inhibition at 10 µM in assay [1] (10 µM, read-out: % Inhibition) was -2%; in assay [2] (10 µM, read-out: % Inhibition), 33%; in assay [3] (10 µM, read-out: % Inhibition), 68%; in assay [4] (10 µM, read-out: % Inhibition), 51%; in assay [5] (10 µM, read-out: % Inhibition), 3%; in assay [6] (10 µM, read-out: % Inhibition), 5%.
As to `Cn1ncc(Cl)c1-c1cc(C(=O)N[C@H](CN)Cc2cccc(F)c2)sc1Cl` [GSK2110183], the inhibition at 0.5 µM in assay [1] was -7%; in assay [2] it was 6%; in assay [3], 3%; in assay [4], 7%; in assay [5] it was 6%; in assay [6], -10%. The inhibition at 10 µM is 12% in assay [1]; 51% in assay [2]; 45% in assay [3]; 28% in assay [4]; 11% in assay [5]; -10% in assay [6].

For the origin of these results see paper PMC4076210, “Discovery of Novel AKT Inhibitors with Enhanced Anti-Tumor Effects in Combination with the MEK Inhibitor” (PLoS ONE, 2014).
